Experimental data taken from patent US20250163048A1 (Tango Therapeutics, Inc., priority 2022, published 2025).
pIC50: −log10 of the molar value. Where two headings read alike, the source gives them in different places.

Columns and labels:
[1] = test system: HAP1 MTAP-deleted cell line; experiment: SDMA in-cell western assay, HAP1 MTAP-deleted; settings: for Hap1 MTAP intact/deleted ratio: IC50 ratio between HAP1 MTAP-intact and HAP1 MTAP-deleted cell line
Description: (§1) HAP1 MTAP-intact is a cell line in which endogenous levels of MTAP are expressed, and HAP1 MTAP-deleted is an MTAP-null cell line.

MTAP-deleted cell line = experiment: viability assay for the MTAP-deleted cell line; assay type: cell-based
[2] = test system: HAP1 MTAP-intact cell line; experiment: SDMA in-cell western assay, HAP1 MTAP-intact
Description: as §1

[3] = Homo sapiens, HAP1, read-out: Hap1 MTAP deleted IC50, SDMA in-cell western, HAP1 MTAP-deleted cell line
[4] = Homo sapiens, HAP1, read-out: Hap1 MTAP deleted IC90, SDMA in-cell western, HAP1 MTAP-deleted cell line
[5] = Homo sapiens, HAP1, viability assay
[6] = Homo sapiens, HAP1, read-out: Hap1 MTAP intact IC50, SDMA in-cell western, HAP1 MTAP-intact cell line

**Q.** How did the pIC50 [1, 3] turn out when `C[C@H]1CC[C@H](c2ccc3nn(C)cc3c2)N(C(=O)C(=O)Nc2cnc(N)c3cn[nH]c23)C1` [Compound 124, N-(4-amino-1H-pyrazolo[4,3-c]pyridin-7-yl)-2-oxo-2-[(2R,5S)-5-methyl-2-(2-methylindazol-5-yl)-1-piperidyl]acetamide] was run?
**A.** > 8.30

**Q.** What about the IC90 [1, 4] of the same molecule?
**A.** < 75 nM

**Q.** And the “Hap1 MTAP intact/deleted ratio” value ([1]; SDMA in-cell western)?
**A.** B (“B” indicates an IC50 ratio greater than or equal to 15 fold but lower than 30 fold)

**Q.** And the pIC50 (MTAP-deleted cell line; [5])?
**A.** > 7.00

**Q.** And the pIC50 [2, 6]?
**A.** < 7.30

**Q.** With `C[C@H]1CC[C@H](C2CCCCO2)N(C(=O)C(=O)Nc2cnc(N)c3cn[nH]c23)C1` (single isomer, unassigned) [Compound 232] as the molecule, how does the pIC50 ([1]; Homo sapiens, HAP1, read-out: Hap1 MTAP deleted IC50, SDMA in-cell western assay, HAP1 MTAP-deleted cell line) read?
**A.** > 8.30

**Q.** What about the IC90 ([1]; Homo sapiens, HAP1, read-out: Hap1 MTAP deleted IC90, SDMA in-cell western assay, HAP1 MTAP-deleted cell line) of the same molecule?
**A.** < 75 nM

**Q.** What about the “Hap1 MTAP intact/deleted ratio” value ([1]; SDMA in-cell western assay) of the same molecule?
**A.** A (“A” indicates an IC50 ratio greater than or equal to 30 fold)

**Q.** And the pIC50 (MTAP-deleted cell line; [5])?
**A.** > 7.00

**Q.** And the pIC50 ([2]; Homo sapiens, HAP1, read-out: Hap1 MTAP intact IC50, SDMA in-cell western assay, HAP1 MTAP-intact cell line)?
**A.** < 7.30

**Q.** How did the pIC50 [1, 3] turn out when `C[C@H]1CC[C@H](c2ccc3sc(CCN4CCCC4)nc3c2)N(C(=O)C(=O)Nc2cncc3[nH]ncc23)C1` [Compound 102, 2-((2R,5S)-5-methyl-2-(2-(2-(pyrrolidin-1-yl)ethyl)benzo[d]thiazol-5-yl)piperidin-1-yl)-2-oxo-N-(1H-pyrazolo[3,4-c]pyridin-4-yl)acetamide] was run?
**A.** > 8.30

**Q.** And the IC90 [1, 4]?
**A.** < 75 nM

**Q.** What about the “Hap1 MTAP intact/deleted ratio” value ([1]; SDMA in-cell western) of the same molecule?
**A.** A (“A” indicates an IC50 ratio greater than or equal to 30 fold)

**Q.** And the pIC50 (MTAP-deleted cell line; [5])?
**A.** > 7.00

**Q.** What about the pIC50 [2, 6] of the same molecule?
**A.** < 7.30

**Q.** Which results are given for `C[C@H]1CC[C@H](c2ccc3sc([C@@H](C)CN4CCCC4)nc3c2)N(C(=O)C(=O)Nc2cncc3cn[nH]c23)C1` [Compound 86, 2-oxo-N-(1H-pyrazolo[4,3-c]pyridin-7-yl)-2-[(2R,5S)-5-methyl-2-[2-[(1S)-1-methyl-2-pyrrolidin-1-yl-ethyl]-1,3-benzothiazol-5-yl]-1-piperidyl]acetamide]?
**A.** pIC50 [1, 3]: > 8.30; IC90 [1, 4]: < 75 nM; Hap1 MTAP intact/deleted ratio ([1]; SDMA in-cell western): B (“B” indicates an IC50 ratio greater than or equal to 15 fold but lower than 30 fold); pIC50 (MTAP-deleted cell line; [5]): > 7.00; pIC50 [2, 6]: < 7.30

**Q.** With `C[C@H]1CC[C@H](c2ccc3sc([C@H]4CCN(C)C[C@H]4C)nc3c2)N(C(=O)C(=O)Nc2cncc3cn[nH]c23)C1` (relative stereo) [Compound 106, 2-oxo-N-(1H-pyrazolo[4,3-c]pyridin-7-yl)-2-[(2R,5S)-5-methyl-2-[2-[rel-(3S,4S)-1,3-dimethyl-4-piperidyl]-1,3-benzothiazol-5-yl]-1-piperidyl]acetamide] as the molecule, how does the “Hap1 MTAP intact/deleted ratio” value ([1]; SDMA in-cell western) read?
**A.** C (“C” indicates an IC50 ratio of less than 15 fold)

**Q.** And the pIC50 ([1]; read-out: Hap1 MTAP deleted IC50, SDMA in-cell western, HAP1 MTAP-deleted cell line)?
**A.** > 8.30

**Q.** And the IC90 ([1]; read-out: Hap1 MTAP deleted IC90, SDMA in-cell western, HAP1 MTAP-deleted cell line)?
**A.** < 75 nM

**Q.** What about the pIC50 (MTAP-deleted cell line; viability assay, read-out: Hap1 MTAP deleted viability IC50) of the same molecule?
**A.** > 7.00

**Q.** And the pIC50 ([2]; read-out: Hap1 MTAP intact IC50, SDMA in-cell western, HAP1 MTAP-intact cell line)?
**A.** 7.30 to 8.30

**Q.** `C[C@H]1CC[C@H](c2ccc3sc([C@H]4CCCN(C)C4)nc3c2)N(C(=O)C(=O)Nc2cncc3c(N)nccc23)C1` (relative stereo) [Compound 10, N-(8-amino-2,7-naphthyridin-4-yl)-2-oxo-2-[(2R,5S)-5-methyl-2-[2-[rel-(3S)-1-methyl-3-piperidyl]-1,3-benzothiazol-5-yl]-1-piperidyl]acetamide] was tested. Which pIC50 [1, 3] did it give?
**A.** > 8.30

**Q.** What about the IC90 [1, 4] of the same molecule?
**A.** < 75 nM

**Q.** And the “Hap1 MTAP intact/deleted ratio” value ([1]; SDMA in-cell western)?
**A.** A (“A” indicates an IC50 ratio greater than or equal to 30 fold)

**Q.** And the pIC50 (MTAP-deleted cell line; [5])?
**A.** > 7.00

**Q.** What about the pIC50 [2, 6] of the same molecule?
**A.** < 7.30

**Q.** What does the source list for `C[C@H]1CC[C@H](c2ccc3sc([C@@H]4CCN(C)C4)nc3c2)N(C(=O)C(=O)Nc2cncc3cn[nH]c23)C1` (single isomer, unassigned) [Compound 2]?
**A.** pIC50 [1, 3]: > 8.30; IC90 [1, 4]: < 75 nM; Hap1 MTAP intact/deleted ratio ([1]; SDMA in-cell western): C (“C” indicates an IC50 ratio of less than 15 fold); pIC50 (MTAP-deleted cell line; [5]): > 7.00; pIC50 [2, 6]: 7.30 to 8.30

**Q.** How did the pIC50 [1, 3] turn out when `C[C@H]1CC[C@H](c2ccc3ccccc3c2)N(C(=O)C(=O)Nc2cnc(N)c3cn[nH]c23)C1` [Compound 79, N-(4-amino-1H-pyrazolo[4,3-c]pyridin-7-yl)-2-((2R,5S)-5-methyl-2-(naphthalen-2-yl)piperidin-1-yl)-2-oxoacetamide] was run?
**A.** > 8.30

**Q.** And the IC90 [1, 4]?
**A.** < 75 nM

**Q.** What about the “Hap1 MTAP intact/deleted ratio” value ([1]; SDMA in-cell western) of the same molecule?
**A.** A (“A” indicates an IC50 ratio greater than or equal to 30 fold)

**Q.** And the pIC50 (MTAP-deleted cell line; [5])?
**A.** > 7.00

**Q.** And the pIC50 [2, 6]?
**A.** 7.30 to 8.30
